The source of these data is article PMC10820527, “Synthesis, Characterization, and Investigation of Anti-Inflammatory and Cytotoxic Activities of Novel Thiourea Derivatives of Naproxen” (Pharmaceutics, 2023).

As a reminder, the IC50 is the concentration that gives 50% inhibition. High values mean a need for much substance, low ones inhibition by little substance. As usually defined, the inhibition is the share of the control response that was lost under treatment.

SMILES strings stand for the structures.

The test system of assay [1] is MRC-5 fibroblast cell line. Kind of assay: MTT cytotoxicity assay, MRC-5. The class given is cell-based. As to conditions: Homo sapiens, mean ± SD. How it is done:
Three cancer cell lines (MDA-MB-231, HCT116 and HeLa; i.e., human breast cancer cells, human colorectal cancer cells, and human cervical cancer cells, respectively), and one non-malignant fibroblast MRC-5 cell line (control) were used in this study. The American Type Cell Collection (ATCC, Manassas, VA, USA) provided all examined cell lines. The cells were grown in a complete medium made up of high-glucose DMEM media supplemented with 10% fetal bovine serum and […] L-glutamine (both from Sigma-Aldrich, USA). The cells were cultured in 25 cc flasks (Thermo Fischer Scientific, Waltham, MA, USA) at 37 °C with 100% humidity in a 5% CO2 atmosphere.
The MTT test was used to assess the cytotoxicity of compounds 1–14 [44]. The cytotoxicity of naproxen was also investigated due to its clinical use and structural similarity. Throughout the exponential development period, cells were taken from culture flasks and counted, and 5 × 10^3 cells/well were planted into 96-well culture plates. Following that, the cell lines were treated with varying doses of the investigated chemicals (1–14), naproxen ([…]), and fresh complete media as a control. All evaluated cells were incubated for 24, 48, and 72 h at 37 °C in an environment containing 5% CO2 and 100% humidity. Following incubation, each well’s culture media was taken out, each well received an addition of MTT solution at a final concentration of 0.5 mg/mL, and the cells were left to incubate for an additional four hours. The MTT solution was then withdrawn carefully, and the formazan crystals were dissolved in DMSO. After shaking the plates for 10 min, absorbance at 595 nm was measured using a multiplate reader (Zenyth 3100, Anthos Labtec Instruments, Salzburg, Austria). All concentrations of the tested compounds were performed in three separate wells of the microtiter plates and in three separate experiments. The results were reported as a ratio to the control value, untreated cells. IC50 values were also determined using Microsoft Office Excel 2021. The percentage of viable cells was estimated by dividing the readout absorbance value in the wells containing treated cells by the average absorbance value measured in the wells containing untreated cells, and multiplying the result by 100 [44]. % of the viable cells = ((absorbance of treated cell-absorbance of blank)/(absorbance of untreated cell-absorbance of blank)) × 100(3)

Assay [2] has as its target T1, 5-LOX (Homo sapiens, UniProt P09917).
T1 construct: purchased Abcam
T1 sequence (P09917 1-674): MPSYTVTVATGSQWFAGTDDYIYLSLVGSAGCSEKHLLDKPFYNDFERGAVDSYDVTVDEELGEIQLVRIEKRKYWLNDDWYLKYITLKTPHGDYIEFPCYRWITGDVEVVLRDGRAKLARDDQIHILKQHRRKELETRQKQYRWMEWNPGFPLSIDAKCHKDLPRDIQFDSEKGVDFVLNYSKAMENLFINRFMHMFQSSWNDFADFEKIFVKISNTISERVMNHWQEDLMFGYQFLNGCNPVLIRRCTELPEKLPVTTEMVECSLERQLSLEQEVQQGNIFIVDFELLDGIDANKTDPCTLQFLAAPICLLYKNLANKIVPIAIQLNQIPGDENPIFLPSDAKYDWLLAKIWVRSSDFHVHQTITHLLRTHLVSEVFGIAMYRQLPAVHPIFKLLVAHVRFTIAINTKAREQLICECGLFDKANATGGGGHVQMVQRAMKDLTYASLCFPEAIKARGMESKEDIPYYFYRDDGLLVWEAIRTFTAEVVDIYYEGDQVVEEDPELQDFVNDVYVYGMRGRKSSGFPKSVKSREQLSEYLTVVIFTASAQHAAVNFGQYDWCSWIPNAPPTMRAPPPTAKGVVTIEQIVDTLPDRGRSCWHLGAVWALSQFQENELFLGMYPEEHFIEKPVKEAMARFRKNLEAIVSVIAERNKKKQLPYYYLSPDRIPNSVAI
Briefly: Fluorometric 5-LOX inhibitor screening kit. To be noted: mean of two measurements with standard error, read-out: 5-LOX Percent of Inhibition. The class given is biochemical. How it is done: The COX-2 and 5-LOX inhibitory potential of the tested compounds was evaluated using a fluorometric COX-2 and 5-LOX inhibitor screening kit (Abcam, Cambridge, UK). These tests are based on determining the presence of prostaglandin G2 (a product of COX enzyme activity) or an intermediate generated by the enzyme 5-LOX, using fluorometric detection. The mentioned experiments were performed according to the manufacturer’s instructions.
For the determination of COX-2 inhibitory potential of tested compounds, stock solutions (5 mM in DMSO) were diluted with the same solvent (test solutions). The test solutions were further diluted with COX assay buffer by mixing 2 µL of the corresponding test solution and 8 µL of COX assay buffer. For the preparation of inhibitory control (IC), celecoxib (2 µL) and COX assay buffer (8 µL) were mixed. Solvent control (SC) was prepared by mixing DMSO (2 µL) and the COX assay buffer (8 µL), enzyme control (EC) was 10 µL of COX assay buffer, while the samples (S) were 10 µL of diluted test solutions. IC, SC, EC, and S were transferred into corresponding wells. For the determination of 5-LOX inhibitory potential of tested compounds, stock solutions of the same concentration (5 mM) were prepared in DMSO. These solutions were further diluted with the same solvent to obtain the test solutions, which were added into the appropriate wells (2 µL). EC, SC, and IC were prepared by adding 2 µL of the assay buffer, DMSO, and zileuton into corresponding wells, respectively.
The fluorescence of the samples was measured kinetically at 25 °C (COX-2: Ex/Em = 535/587 nm, during 10 min; 5-LOX: Ek/Em = 500/536 nm during 20 min) using a Synergi LX multi-mode microplate reader (BioTek, Shoreline, WA, USA).

The test system of assay [3] is HeLa cells. Briefly: Cell cycle analysis (PI staining, flow cytometry). The class given is cell-based, human. To be noted: 24 h, IC50 concentration, p < 0.05. How it is done: The next step in this study was to evaluate whether the rate of division of HeLa tumor cells slows down under the influence of tested compounds. To examine the potential effect of compounds 3 and 8 on the cell cycle of HeLa cells, the cell line was incubated and treated with previously calculated IC50 values. The control population of untreated cells was also harvested and washed in the above-mentioned manner. Furthermore, HeLa cells were harvested, washed with PBS, and fixed with 70% ethanol at +4 °C. Cells were agglomerated and finally resuspended in 1 mL PBS containing RNAse A (500 μg/mL). After 30 min of incubation, cells were stained with 5 μL PI (10 mg/mL PBS). After 15 min of incubation in the dark, the samples were examined using a Beckman Coulter FC500 flow cytometer.

Regarding `COc1ccc2cc([C@H](C)C(=O)NC(=S)Nc3ccccc3F)ccc2c1` [Compound 12, (S)-N-((2-fluorophenyl)carbamothioyl)-2-(6-methoxynaphthalen-2-yl)propanamide], the half-inhibitory concentration (IC50) was > 200 µM in assay [1] (MRC5, 24 h); > 200 µM in assay [1] (MRC5, 48 h); > 200 µM in assay [1] (MRC5, 72 h). In addition, the inhibition at 10 µM in assay [2] is 29.7 ± 8.56%.

Consider `COc1ccc2cc([C@H](C)C(=O)NC(=S)Nc3ccccc3C)ccc2c1` [Compound 10, (S)-2-(6-methoxynaphthalen-2-yl)-N-(o-tolylcarbamothioyl)propanamide], for which the IC50 in assay [1] (MRC5, 24 h) is > 200 µM; in assay [1] (MRC5, 48 h) it was > 200 µM; in assay [1] (MRC5, 72 h) it was > 200 µM. In assay [2], the inhibition at 10 µM worked out at 27.9 ± 0.57%.

As to `COc1ccc2cc([C@H](C)C(=O)NC(=S)Nc3ccc(C)cc3)ccc2c1` [Compound 9, (S)-2-(6-methoxynaphthalen-2-yl)-N-(p-tolylcarbamothioyl)propanamide], the IC50 is > 200 µM in assay [1] (MRC5, 24 h); > 200 µM in assay [1] (MRC5, 48 h); > 200 µM in assay [1] (MRC5, 72 h). For the same compound, the inhibition at 10 µM in assay [2] was determined as 12.9 ± 5.47%.

Regarding `COC(=O)[C@H](Cc1c[nH]c2ccccc12)NC(=S)NC(=O)[C@@H](C)c1ccc2cc(OC)ccc2c1` [Compound 14, Methyl (((S)-2-(6-methoxynaphthalen-2-yl)propanoyl)carbamothioyl)tryptophanate], the IC50 is > 200 µM in assay [1] (MRC5, 24 h); > 200 µM in assay [1] (MRC5, 48 h); > 200 µM in assay [1] (MRC5, 72 h). The inhibition at 10 µM in assay [2] came out at 46.24 ± 0.4%.

For `COC(=O)[C@H](Cc1ccccc1)NC(=S)NC(=O)[C@@H](C)c1ccc2cc(OC)ccc2c1` [Compound 13, Methyl (((S)-2-(6-methoxynaphthalen-2-yl)propanoyl)carbamothioyl)phenylalaninate], the IC50 is > 200 µM in assay [1] (MRC5, 24 h); > 200 µM in assay [1] (MRC5, 48 h); > 200 µM in assay [1] (MRC5, 72 h). Also, in assay [2], the inhibition at 10 µM came to 19.8 ± 13.2%.

For the compound `COc1ccc2cc([C@H](C)C(=O)NC(=S)Nc3ccccc3)ccc2c1` [Compound 8, (S)-2-(6-methoxynaphthalen-2-yl)-N-(phenylcarbamothioyl)propanamide], the IC50 in assay [1] (MRC5, 24 h) is > 200 µM; in assay [1] (MRC5, 48 h), > 200 µM; in assay [1] (MRC5, 72 h), > 200 µM. Moreover, in assay [2], the inhibition at 10 µM was 34.6 ± 5.84%. For the same compound, the “Effect on cell cycle of HeLa cells (in words)” value in assay [3] is given as “induced G0/G1 phase arrest”.

`COc1ccc2cc([C@H](C)C(=O)NC(=S)Nc3ccccc3OC)ccc2c1` [Compound 11, (S)-2-(6-methoxynaphthalen-2-yl)-N-((2-methoxyphenyl)carbamothioyl)propanamide]: the IC50 is > 200 µM in assay [1] (MRC5, 24 h); > 200 µM in assay [1] (MRC5, 48 h); > 200 µM in assay [1] (MRC5, 72 h). Also, in assay [2], the inhibition at 10 µM came to 31.2 ± 5.45%.
